# Source: US8119563B2, “N-substituted azacycles” (FMC Corporation, priority 2003, dated 2012)
# Test system: tobacco budworm (Heliothis virescens [Fabricius])
# Test: surface-treated diet test, insecticidal activity against tobacco budworm
# Assay type: in vivo
# Design: mortality: concentration or dose not given beside the values
# Details: 0.25 millimoles of candidate insecticide on the surface of the diet, second instar larvae, five-day exposure
# In short: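 Wheat germ artificial diet surface-treated with compound from 50 mM DMSO stock diluted 1:7 in 1:1 water/acetone (0.25 millimolar on diet), or lower-rate dilutions; DMSO-only controls. One second-instar larva per well, 25° C, 60% RH, 14 h light, five days; percent weight inhibition versus untreated and percent mortality scored.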
# [1] = compared to total number of insects infested
# [2] = inhibition of insect weight relative to untreated controls
Structure (SMILES),"mortality (Heliothis virescens, 120 h, compared to total number of insects infested, read-out: Percent Mortality) [%]","pest or weed control at 0.25 mmol/well (Heliothis virescens, 120 h, inhibition of insect weight relative to untreated controls, read-out: Percent Growth Inhibition) [%]",Percent Mortality [1] [%],Percent Growth Inhibition [2] [%]
"COCCOc1ccc(C[N+]2([O-])CCC(O)(C(c3ccc(OC(F)(F)F)cc3)c3ccc(OC(F)(F)F)cc3)CC2)cc1 (stereo not drawn) [Compound 385, 4-{bis[4-(trifluoromethoxy)phenyl]methyl}-4-hydroxy-1-{[4-(2-methoxyethoxy)phenyl]methyl}piperidin-1-oxide]",100,100,–,–
CCCOC(=O)Nc1ccc(C[N+]2([O-])CCC(O)(C(c3ccc(OC(F)(F)F)cc3)c3ccc(OC(F)(F)F)cc3)CC2)cc1 (stereo not drawn) [Compound 387],–,–,100,100
[O-][N+]1(Cc2ccc(C=NOCCF)cc2)CCC(O)(C(c2ccc(OC(F)(F)F)cc2)c2ccc(OC(F)(F)F)cc2)CC1 (stereo not drawn) [Compound 389],–,–,100,100
CCCOC(=O)Nc1ccc(C[N+]2([O-])CCC(O)(C(c3ccc(C(F)(F)F)cc3)c3ccc(C(F)(F)F)cc3)CC2)cc1 (stereo not drawn) [Compound 390],–,–,100,100
[O-][N+]1(Cc2ccc(Oc3ccccn3)cc2)CCC(O)(C(c2ccc(Cl)cc2)c2ccc(OC(F)(F)F)cc2)CC1 (stereo not drawn) [Compound 391],–,–,100,100
[O-][N+]1(Cc2ccc(OCC3CC3)cc2)CCC(O)(C(c2ccc(OC(F)(F)F)cc2)c2ccc(OC(F)(F)F)cc2)CC1 (stereo not drawn) [Compound 392],–,–,100,100
[O-][N+]1(Cc2ccc(OCc3ccccc3)cc2)CCC(O)(C(c2ccc(C(F)(F)F)cc2)c2ccc(C(F)(F)F)cc2)CC1 (stereo not drawn) [Compound 393],–,–,100,100
[O-][N+]1(Cc2ccc(Oc3ncccc3Cl)cc2)CCC(O)(C(c2ccc(OC(F)(F)F)cc2)c2ccc(OC(F)(F)F)cc2)CC1 (stereo not drawn) [Compound 399],–,–,100,100
[O-][N+]1(Cc2ccc(Oc3ncccn3)cc2)CCC(O)(C(c2ccc(Cl)cc2)c2ccc(OC(F)(F)F)cc2)CC1 (stereo not drawn) [Compound 402],–,–,100,100
O=C(Nc1ccc(C[N+]2([O-])CCC(O)(C(c3ccc(OC(F)(F)F)cc3)c3ccc(OC(F)(F)F)cc3)CC2)cc1)OCC1CC1 (stereo not drawn) [Compound 404],–,–,100,100
CCON=Cc1ccc(C[N+]2([O-])CCC(O)(C(c3ccc(Cl)cc3)c3ccc(OC(F)(F)F)cc3)CC2)cc1 (stereo not drawn) [Compound 405],–,–,100,100
CC(C)OC(=O)c1ccc(C[N+]2([O-])CCC(O)(C(c3ccc(C(F)(F)F)cc3)c3ccc(C(F)(F)F)cc3)CC2)cc1 (stereo not drawn) [Compound 407],–,–,100,100
[O-][N+]1(Cc2ccc(Oc3ncccn3)cc2)CCC(O)(C(c2ccc(OC(F)(F)C(F)C(F)(F)F)cc2)c2ccc(OC(F)(F)C(F)C(F)(F)F)cc2)CC1 (stereo not drawn) [Compound 409],–,–,100,100
NC(=O)CON=Cc1ccc(C[N+]2([O-])CCC(O)(C(c3ccc(OC(F)(F)F)cc3)c3ccc(OC(F)(F)F)cc3)CC2)cc1 (stereo not drawn) [Compound 410],–,–,100,100
[O-][N+]1(Cc2ccc(-c3ncccc3Cl)cc2)CCC(O)(C(c2ccc(OC(F)(F)F)cc2)c2ccc(OC(F)(F)F)cc2)CC1 (stereo not drawn) [Compound 411],–,–,100,100
[O-][N+]1(Cc2ccc(Oc3ccc(Cl)nn3)cc2)CCC(O)(C(c2ccc(OC(F)(F)F)cc2)c2ccc(OC(F)(F)F)cc2)CC1 (stereo not drawn) [Compound 412],–,–,100,100
Cc1ccc(Oc2ccc(C[N+]3([O-])CCC(O)(C(c4ccc(OC(F)(F)F)cc4)c4ccc(OC(F)(F)F)cc4)CC3)cc2)nn1 (stereo not drawn) [Compound 413],–,–,100,100
CCn1nnc(-c2ccc(CN3CCC(O)(C(O)(c4ccc(OC(F)(F)F)cc4)c4ccc(OC(F)(F)F)cc4)CC3)cc2)n1 [Compound 416],–,–,100,100
CCON=Cc1ccc(CN2CCC(O)(C(O)(c3ccc(OC(F)(F)F)cc3)c3ccc(OC(F)(F)F)cc3)CC2)cc1 [Compound 417],–,–,100,100
O=Cc1ccc(CN2CCC(O)(C(O)(c3ccc(OC(F)(F)F)cc3)c3ccc(OC(F)(F)F)cc3)CC2)cc1 [Compound 418],–,–,0,83

Structure (SMILES),"mortality (Heliothis virescens, 120 h, compared to total number of insects infested, read-out: Percent Mortality) [%]","pest or weed control at 0.25 mmol/well (Heliothis virescens, 120 h, inhibition of insect weight relative to untreated controls, read-out: Percent Growth Inhibition) [%]",Percent Mortality [1] [%],Percent Growth Inhibition [2] [%]
CC(C)OC(=O)Nc1ccc(CN2CCC(O)(C(O)(c3ccc(OC(F)(F)F)cc3)c3ccc(OC(F)(F)F)cc3)CC2)cc1 [Compound 419],–,–,100,100
[O-][N+]1(Cc2ccc(Oc3ccccn3)cc2)CCC(O)(C(O)(c2ccc(OC(F)(F)F)cc2)c2ccc(OC(F)(F)F)cc2)CC1 (stereo not drawn) [Compound 421],–,–,100,100
[O-][N+]1(Cc2ccc(Oc3ncccn3)cc2)CCC(O)(C(O)(c2ccc(OC(F)(F)F)cc2)c2ccc(OC(F)(F)F)cc2)CC1 (stereo not drawn) [Compound 422],–,–,100,100
CC(C)OC(=O)Nc1ccc(C[N+]2([O-])CCC(O)(C(O)(c3ccc(OC(F)(F)F)cc3)c3ccc(OC(F)(F)F)cc3)CC2)cc1 (stereo not drawn) [Compound 423],–,–,100,100
CCON=Cc1ccc(C[N+]2([O-])CCC(O)(C(O)(c3ccc(OC(F)(F)F)cc3)c3ccc(OC(F)(F)F)cc3)CC2)cc1 (stereo not drawn) [Compound 424],–,–,100,100
[O-][N+]1(Cc2ccc(Oc3ccc(Cl)nn3)cc2)CCC(O)(C(O)(c2ccc(OC(F)(F)F)cc2)c2ccc(OC(F)(F)F)cc2)CC1 (stereo not drawn) [Compound 425],–,–,100,100
CCn1nnc(-c2ccc(C[N+]3([O-])CCC(O)(C(O)(c4ccc(OC(F)(F)F)cc4)c4ccc(OC(F)(F)F)cc4)CC3)cc2)n1 (stereo not drawn) [Compound 426],–,–,100,100
[O-][N+]1(Cc2ccc(Oc3ccccn3)cc2)CCC(O)(C(F)(c2ccc(OC(F)(F)F)cc2)c2ccc(OC(F)(F)F)cc2)CC1 (stereo not drawn) [Compound 430],–,–,100,100
[O-][N+]1(Cc2ccc(Oc3ccccn3)cc2)CCC2(CC1)OC2(c1ccc(OC(F)(F)F)cc1)c1ccc(OC(F)(F)F)cc1 (stereo not drawn) [Compound 431],–,–,100,100
OC1(C(c2ccc(OC(F)(F)F)cc2)c2ccc(Cl)cc2Cl)CCN(Cc2ccc(Oc3ccccn3)cc2)CC1 (stereo not drawn) [Compound 433],–,–,100,100
OC1(C(c2ccccc2F)c2ccccc2F)CCN(Cc2ccc(Oc3ncccn3)cc2)CC1 [Compound 434],–,–,0,56
Cc1cc(C(c2ccc(OC(F)(F)F)cc2)C2(O)CCN(Cc3ccc(Oc4ccccn4)cc3)CC2)ccc1Cl (stereo not drawn) [Compound 435],–,–,100,100
Cc1cc(Cl)ccc1C(c1ccc(OC(F)(F)F)cc1)C1(O)CCN(Cc2ccc(Oc3ccccn3)cc2)CC1 (stereo not drawn) [Compound 436],–,–,100,100
OC1(C(c2ccc(OC(F)(F)F)cc2)c2ccccc2Cl)CCN(Cc2ccc(Oc3ccccn3)cc2)CC1 (stereo not drawn) [Compound 437],–,–,100,100
OC1(C(c2ccc(OC(F)(F)F)cc2)c2cccc(Cl)c2Cl)CCN(Cc2ccc(Oc3ccccn3)cc2)CC1 (stereo not drawn) [Compound 438],–,–,100,100
OC1(C(c2ccc(OC(F)(F)F)cc2)c2cccc(Cl)c2)CCN(Cc2ccc(Oc3ccccn3)cc2)CC1 (stereo not drawn) [Compound 439],–,–,100,100
CCON=Cc1ccc(C(c2ccc(OC(F)(F)F)cc2)C2(O)CCN(Cc3ccc(Oc4ccccn4)cc3)CC2)cc1 (stereo not drawn) [Compound 440],–,–,100,100
OC1(C(c2ccc(OC(F)(F)F)cc2)c2ccc(Cl)c(Cl)c2)CCN(Cc2ccc(Oc3ccccn3)cc2)CC1 (stereo not drawn) [Compound 441],–,–,100,100
OC1(C(c2ccc(OC(F)(F)F)cc2)c2cc(Cl)cc(Cl)c2)CCN(Cc2ccc(Oc3ccccn3)cc2)CC1 (stereo not drawn) [Compound 442],–,–,100,100
